# Test results taken from patent US20020026053A1, “Novel 3-(substituted) -2- indolinones compounds and use thereof as inhibitors of protein kinase activity” (priority 1997, published 2002).
# Test system: FLK-1 receptor
# Experiment: FLK-1 Assay (cellular/catalytic ELISA, VEGF-stimulated phosphotyrosine)
# Type: cell-based
# Set-up: concentration or dose not given beside the values
# Details: protocol P.110
# Method in brief: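 NIH3T3 C7#3 cells engineered to express Flk-1 were serum-starved overnight (0.1% FBS), then exposed to compound for 2 h at 37 °C (final dilution 1:200, 0.5% DMSO) before VEGF stimulation. Lysates captured on anti-FLK-1 antiserum plates; phosphotyrosine detected by UB40 antibody/POD-ABTS ELISA versus untreated controls.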
row,Structure (SMILES),Flk Kinase % Inhibition (P.110) [%]
1,COC1CCCN1C=C1C(=O)Nc2c(Br)cc(Br)cc21 (racemic) [10740/A04],1.3
2,COC1CCCN1C=C1C(=O)Nc2ccc(I)cc21 (racemic) [10740/B04],−0.3
3,Cc1c(Br)cc(Br)c2c1C(=Cc1ccc(CO)o1)C(=O)N2 [10739/H11],−7.6
4,O=C1Nc2c(Br)cc(Br)cc2C1=Cc1cnc2ccccc2c1 [10740/A02],5.7
5,O=C1Nc2c(Br)cc(Br)cc2C1=Cc1ccnc2ccccc12 [10740/A03],4.2
6,O=C1Nc2c(Br)cc(Br)cc2C1=Cc1ccsc1 [10740/A05],−13.1
7,O=C1Nc2c(Br)cc(Br)cc2C1=Cc1ccc2ccccc2n1 [10740/A06],−8.7
8,Cn1cc(C=C2C(=O)Nc3c(Br)cc(Br)cc32)c2ccccc21 [10740/A07],−18.3
9,Cc1[nH]c2ccccc2c1C=C1C(=O)Nc2c(Br)cc(Br)cc21 [10740/A08],−18.3
10,O=C1Nc2c(Br)cc(Br)cc2C1=Cc1cc(Br)cs1 [10740/A10],−7.7
11,CCCCOc1ccc(C=C2C(=O)Nc3c(Br)cc(Br)cc32)cc1 [10740/A11],−3.5
12,O=C1Nc2ccc(I)cc2C1=Cc1cnc2ccccc2c1 [10740/B02],−17.0
13,O=C1Nc2ccc(I)cc2C1=Cc1ccnc2ccccc12 [10740/B03],−9.3
14,O=C1Nc2ccc(I)cc2C1=Cc1ccsc1 [10740/B05],−11.6
15,O=C1Nc2ccc(I)cc2C1=Cc1ccc2ccccc2n1 [10740/B06],−5.9
16,Cn1cc(C=C2C(=O)Nc3ccc(I)cc32)c2ccccc21 [10740/B07],−8.5
17,Cc1[nH]c2ccccc2c1C=C1C(=O)Nc2ccc(I)cc21 [10740/B08],6.6
18,O=C1Nc2ccc(I)cc2C1=Cc1cc(Br)cs1 [10740/B10],11.8
19,CCCCOc1ccc(C=C2C(=O)Nc3ccc(I)cc32)cc1 [10740/B11],0.7
20,Cc1c(Br)ccc2c1C(=Cc1cnc3ccccc3c1)C(=O)N2 [10740/C02],−5.9
21,Cc1c(Br)ccc2c1C(=Cc1ccnc3ccccc13)C(=O)N2 [10740/C03],−129.3
22,COC1CCCN1C=C1C(=O)Nc2ccc(Br)c(C)c21 (stereo not shown) [10740/C04],−3.4
23,Cc1c(Br)ccc2c1C(=Cc1ccsc1)C(=O)N2 [10740/C05],−19.1
24,Cc1c(Br)ccc2c1C(=Cc1ccc3ccccc3n1)C(=O)N2 [10740/C06],−19.1
25,Cc1c(Br)ccc2c1C(=Cc1cn(C)c3ccccc13)C(=O)N2 [10740/C07],1.1

row,Structure (SMILES),Flk Kinase % Inhibition (P.110) [%]
1,Cc1[nH]c2ccccc2c1C=C1C(=O)Nc2ccc(Br)c(C)c21 [10740/C08],4.6
2,Cc1c(Br)ccc2c1C(=Cc1cc(Br)cs1)C(=O)N2 [10740/C10],0.8
3,CCCCOc1ccc(C=C2C(=O)Nc3ccc(Br)c(C)c32)cc1 [10740/C11],6.9
4,CNS(=O)(=O)c1ccc2c(c1)C(=Cc1cnc3ccccc3c1)C(=O)N2 [10740/D02],4.1
5,CNS(=O)(=O)c1ccc2c(c1)C(=Cc1ccnc3ccccc13)C(=O)N2 [10740/D03],15.1
6,CNS(=O)(=O)c1ccc2c(c1)C(=CN1CCCC1OC)C(=O)N2 (stereo not shown) [10740/D04],−2.0
7,CNS(=O)(=O)c1ccc2c(c1)C(=Cc1ccsc1)C(=O)N2 [10740/D05],−6.3
8,CNS(=O)(=O)c1ccc2c(c1)C(=Cc1ccc3ccccc3n1)C(=O)N2 [10740/D06],9.6
9,CNS(=O)(=O)c1ccc2c(c1)C(=Cc1cn(C)c3ccccc13)C(=O)N2 [10740/D07],−4.5
10,CNS(=O)(=O)c1ccc2c(c1)C(=Cc1c(C)[nH]c3ccccc13)C(=O)N2 [10740/D08],−6.4
11,CNS(=O)(=O)c1ccc2c(c1)C(=Cc1cc(Br)cs1)C(=O)N2 [10740/D10],1.5
12,CCCCOc1ccc(C=C2C(=O)Nc3ccc(S(=O)(=O)NC)cc32)cc1 [10740/D11],3.0
13,O=C1Nc2ccc(S(=O)(=O)Nc3ccc(C(F)(F)F)cc3)cc2C1=Cc1cnc2ccccc2c1 [10740/E02],9.6
14,O=C1Nc2ccc(S(=O)(=O)Nc3ccc(C(F)(F)F)cc3)cc2C1=Cc1ccnc2ccccc12 [10740/E03],0.2
15,COC1CCCN1C=C1C(=O)Nc2ccc(S(=O)(=O)Nc3ccc(C(F)(F)F)cc3)cc21 (stereo not shown) [10740/E04],2.0
16,O=C1Nc2ccc(S(=O)(=O)Nc3ccc(C(F)(F)F)cc3)cc2C1=Cc1ccsc1 [10740/E05],28.7
17,O=C1Nc2ccc(S(=O)(=O)Nc3ccc(C(F)(F)F)cc3)cc2C1=Cc1ccc2ccccc2n1 [10740/E06],−8.4
18,Cn1cc(C=C2C(=O)Nc3ccc(S(=O)(=O)Nc4ccc(C(F)(F)F)cc4)cc32)c2ccccc21 [10740/E07],34.4
19,Cc1[nH]c2ccccc2c1C=C1C(=O)Nc2ccc(S(=O)(=O)Nc3ccc(C(F)(F)F)cc3)cc21 [10740/E08],39.1
20,O=C1Nc2ccc(S(=O)(=O)Nc3ccc(C(F)(F)F)cc3)cc2C1=Cc1cc(Br)cs1 [10740/E10],11.8
21,CCCCOc1ccc(C=C2C(=O)Nc3ccc(S(=O)(=O)Nc4ccc(C(F)(F)F)cc4)cc32)cc1 [10740/E11],17.1
22,O=C1Nc2ccc(S(=O)(=O)N3CCOCC3)cc2C1=Cc1cnc2ccccc2c1 [10740/F02],2.8
23,O=C1Nc2ccc(S(=O)(=O)N3CCOCC3)cc2C1=Cc1ccnc2ccccc12 [10740/F03],−0.9
24,COC1CCCN1C=C1C(=O)Nc2ccc(S(=O)(=O)N3CCOCC3)cc21 (stereo not shown) [10740/F04],6.8
25,O=C1Nc2ccc(S(=O)(=O)N3CCOCC3)cc2C1=Cc1ccsc1 [10740/F05],−13.5

row,Structure (SMILES),Flk Kinase % Inhibition (P.110) [%]
1,O=C1Nc2ccc(S(=O)(=O)N3CCOCC3)cc2C1=Cc1ccc2ccccc2n1 [10740/F06],1.3
2,Cn1cc(C=C2C(=O)Nc3ccc(S(=O)(=O)N4CCOCC4)cc32)c2ccccc21 [10740/F07],−6.3
3,Cc1[nH]c2ccccc2c1C=C1C(=O)Nc2ccc(S(=O)(=O)N3CCOCC3)cc21 [10740/F08],−5.0
4,O=C1Nc2ccc(S(=O)(=O)N3CCOCC3)cc2C1=Cc1cc(Br)cs1 [10740/F10],10.0
5,CCCCOc1ccc(C=C2C(=O)Nc3ccc(S(=O)(=O)N4CCOCC4)cc32)cc1 [10740/F11],8.2
6,O=C1Nc2ccc(CCCl)cc2C1=Cc1cnc2ccccc2c1 [10740/G02],−2.6
7,O=C1Nc2ccc(CCCl)cc2C1=Cc1ccnc2ccccc12 [10740/G03],−2.0
8,COC1CCCN1C=C1C(=O)Nc2ccc(CCCl)cc21 (stereo not shown) [10740/G04],−5.1
9,O=C1Nc2ccc(CCCl)cc2C1=Cc1ccsc1 [10740/G05],−18.6
10,O=C1Nc2ccc(CCCl)cc2C1=Cc1ccc2ccccc2n1 [10740/G06],−19.3
11,Cn1cc(C=C2C(=O)Nc3ccc(CCCl)cc32)c2ccccc21 [10740/G07],0.4
12,Cc1[nH]c2ccccc2c1C=C1C(=O)Nc2ccc(CCCl)cc21 [10740/G08],−0.5
13,O=C1Nc2ccc(CCCl)cc2C1=Cc1cc(Br)cs1 [10740/G10],−2.8
14,CCCCOc1ccc(C=C2C(=O)Nc3ccc(CCCl)cc32)cc1 [10740/G11],3.3
15,Cc1c(Br)cc(Br)c2c1C(=Cc1cnc3ccccc3c1)C(=O)N2 [10740/H02],−3.7
16,Cc1c(Br)cc(Br)c2c1C(=Cc1ccnc3ccccc13)C(=O)N2 [10740/H03],−9.7
17,COC1CCCN1C=C1C(=O)Nc2c(Br)cc(Br)c(C)c21 (stereo not shown) [10740/H04],6.0
18,Cc1c(Br)cc(Br)c2c1C(=Cc1ccsc1)C(=O)N2 [10740/H05],5.8
19,Cc1c(Br)cc(Br)c2c1C(=Cc1ccc3ccccc3n1)C(=O)N2 [10740/H06],3.2
20,Cc1c(Br)cc(Br)c2c1C(=Cc1cn(C)c3ccccc13)C(=O)N2 [10740/H07],10.1
21,Cc1[nH]c2ccccc2c1C=C1C(=O)Nc2c(Br)cc(Br)c(C)c21 [10740/H08],11.5
22,Cc1c(Br)cc(Br)c2c1C(=Cc1cc(Br)cs1)C(=O)N2 [10740/H10],0.4
23,CCCCOc1ccc(C=C2C(=O)Nc3c(Br)cc(Br)c(C)c32)cc1 [10740/H11],7.4
